Where two headings read alike, the source gives them in different places.
Key:
[1] = Determination of pKa of formulated lipids (TNS fluorescence assay in lipid nanoparticles); assay type: physicochemical; conditions: cationic lipid formulated in lipid nanoparticles (cationic lipid/DSPC/cholesterol/PEG-lipid 47.5/10/40.7/1.8 mol %)
Protocol: As described elsewhere, the pKa of formulated cationic lipids is correlated with the effectiveness of LNPs for delivery of nucleic acids (see Jayaraman et al, Angewandte Chemie, International Edition (2012), 51(34), 8529-8533; Semple et al, Nature Biotechnology 28, 172-176 (2010)). The preferred range of pKa is ˜5 to ˜7. The pKa of each cationic lipid was determined in lipid nanoparticles using an assay based on fluorescence of 2-(p-toluidino)-6-napthalene sulfonic acid (TNS). Lipid nanoparticles comprising cationic lipid/DSPC/cholesterol/PEG-lipid (47.5/10/40.7/1.8 mol %) in PBS at a concentration of 0.4 mM total lipid were prepared using the in-line process as described in Example 1. TNS was prepared as a 100 μM stock solution in distilled water. Vesicles were diluted to 24 μM lipid in 2 mL of buffered solutions containing, 10 mM HEPES, 10 mM MES, 10 mM ammonium acetate, 130 mM NaCl, where the pH ranged from 2.5 to 11. An aliquot of the TNS solution was added to give a final concentration of 1 μM and following vortex mixing fluorescence intensity was measured at room temperature in a SLM Aminco Series 2 Luminescence Spectrophotometer using excitation and emission wavelengths of 321 nm and 445 nm. A sigmoidal best fit analysis was applied to the fluorescence data and the pKa was measured as the pH giving rise to half-maximal fluorescence intensity.

[2] = test system: luciferase expression in the liver; experiment: In vivo luciferase mRNA expression rodent model (liver luciferase after tail vein injection of mRNA-LNP); design: species or system mice; conditions: tail vein injection, liver 4 hours after administration
Protocol: Lipid nanoparticles were prepared and tested according to the general procedures described in PCT Pub. Nos. WO 2015/199952 and WO 2017/004143, the full disclosures of which are incorporated herein by reference. Briefly, cationic lipid, DSPC, cholesterol and PEG-lipid were solubilized in ethanol at a molar ratio of about 50:10:38.5:1.5 or about 47.5:10:40.7:1.8. Lipid nanoparticles (LNP) were prepared at a total lipid to mRNA weight ratio of approximately 10:1 to 40:1. The mRNA is diluted to 0.2 mg/mL in 10 to 50 mM citrate or acetate buffer, pH 4. Syringe pumps were used to mix the ethanolic lipid solution with the mRNA aqueous solution at a ratio of about 1:5 to 1:3 (vol/vol) with total flow rates above 15 mL/min. The ethanol was then removed and the external buffer replaced with PBS by dialysis. Finally, the lipid nanoparticles were filtered through a 0.2 µm pore sterile filter. Lipid nanoparticle particle size was approximately 55-95 nm diameter, and in some instances approximately 70-90 nm diameter as determined by quasi-elastic light scattering using a Malvern Zetasizer Nano ZS (Malvern, UK).
Studies were performed in 6-8 week old female C57BL/6 mice (Charles River) or 8-10 week old CD-1 (Harlan) mice (Charles River) according to guidelines established by an institutional animal care committee (ACC) and the Canadian Council on Animal Care (CCAC). Varying doses of mRNA-lipid nanoparticle were systemically administered by tail vein injection and animals euthanized at a specific time point (e.g., 4 hours) post-administration. Liver and spleen were collected in pre-weighed tubes, weights determined, immediately snap frozen in liquid nitrogen and stored at −80° C. until processing for analysis.
For liver, approximately 50 mg was dissected for analyses in a 2 mL FastPrep tubes (MP Biomedicals, Solon OH). ¼″ ceramic sphere (MP Biomedicals) is added to each tube and 500 μL of Glo Lysis Buffer—GLB (Promega, Madison WI) equilibrated to room temperature is added to liver tissue. Liver tissues were homogenized with the FastPrep24 instrument (MP Biomedicals) at 2×6.0 m/s for 15 seconds. Homogenate was incubated at room temperature for 5 minutes prior to a 1:4 dilution in GLB and assessed using SteadyGlo Luciferase assay system (Promega). Specifically, 50 μL of diluted tissue homogenate was reacted with 50 μL of SteadyGlo substrate, shaken for 10 seconds followed by 5 minute incubation and then quantitated using a CentroXS^3 LB 960 luminometer (Berthold Technologies, Germany). The amount of protein assayed was determined by using the BCA protein assay kit (Pierce, Rockford IL). Relative luminescence units (RLU) were then normalized to total μg protein assayed. To convert RLU to ng luciferase a standard curve was generated with QuantiLum Recombinant Luciferase (Promega).
The FLuc mRNA (L-6107 or L-7202) from Trilink Biotechnologies will express a luciferase protein, originally isolated from the firefly, Photimus pyralis. FLuc is commonly used in mammalian cell culture to measure both gene expression and cell viability. It emits bioluminescence in the presence of the substrate, luciferin. This capped and poly-adenylated mRNA was fully substituted with respect to uridine and/or cytidine nucleosides.
Representative compounds of the disclosure shown in Table 2 were formulated using the following molar ratio: 50% cationic lipid/10% distearoylphosphatidylcholine (DSPC)/38.5% Cholesterol/1.5% PEG lipid 2-[2-(ω-methoxy(polyethyleneglycol2000)ethoxy]-N,N-ditetradecylacetamide) or 47.5% cationic lipid/10% DSPC/40.7% Cholesterol/1.8% PEG lipid. Relative activity was determined by measuring luciferase expression in the liver 4 hours following administration via tail vein injection as described in Example 1. The activity was compared at a dose of 1.0 or 0.5 or 0.3 mg mRNA/kg and expressed as ng luciferase/g liver measured 4 hours after administration, as described in Example 1. Compound numbers in Table 2 refer to the compound numbers of Table 1. […]

SMILES	pKa [1]	Liver Luc (ng luc/g liver), determined at 0.3 mg/kg ([2]; 0.3 mg/kg (footnote *)) [ng luc/g liver]	Liver Luc (ng luc/g liver), determined at 1.0 mg/kg ([2]; 1.0 mg/kg) [ng luc/g liver]	pKa ([1]; probe 2-(p-toluidino)-6-napthalene sulfonic acid (TNS), 1 µM final, read-out: pKa)	Liver Luc @ 0.5 mg/kg (ng luc/g liver) ([2]; 0.5 mg mRNA/kg)
CCCCC(CC)COC(=O)CCCCCCCCC(CCCCCCCCC(=O)OCC(CC)CCC)N(CCCCN(C)C)C(=O)C(F)(F)C(F)(F)C(F)(F)C(F)(F)C(F)(F)C(F)(F)C(F)(F)F (centres unmarked) [I-5 analogue, reference compound]	6.86	666 ± 589	1338 ± 798		
CCCCCCC(CCCC)COC(=O)CCCCCC(CCCCCC(=O)OCC(CCCC)CCCCCC)N(CCCN(C)C)C(=O)CCCC(F)(F)F (centres unmarked) [Compound I-15, BIS(2-BUTYLOCTYL) 7-(N-(3-(DIMETHYLAMINO)PROPYL)-5,5,5-TRIFLUOROPENTANAMIDO)TRIDECANEDIOATE]				6.78	1007 ± 671
